Laboratory results: article PMC9822402, “Investigation on Hydrazonobenzenesulfonamides as Human Carbonic Anhydrase I, II, IX and XII Inhibitors” (Molecules, 2022)

Assays:
hCA II = biological target: T1, hCA II (Homo sapiens, UniProt P00918); assay: stopped-flow CO2 hydrase assay; type: biochemical; details: read-out: KI (nM) ^1 / CAII
T1 construct: gene CA2; recombinant, obtained in-house

hCA I = biological target: T2, hCA I (Homo sapiens, UniProt P00915); assay: stopped-flow CO2 hydrase assay; type: biochemical; details: read-out: KI (nM) ^1 / CAI
T2 construct: gene CA1; recombinant, obtained in-house
T2 sequence (P00915 2-261): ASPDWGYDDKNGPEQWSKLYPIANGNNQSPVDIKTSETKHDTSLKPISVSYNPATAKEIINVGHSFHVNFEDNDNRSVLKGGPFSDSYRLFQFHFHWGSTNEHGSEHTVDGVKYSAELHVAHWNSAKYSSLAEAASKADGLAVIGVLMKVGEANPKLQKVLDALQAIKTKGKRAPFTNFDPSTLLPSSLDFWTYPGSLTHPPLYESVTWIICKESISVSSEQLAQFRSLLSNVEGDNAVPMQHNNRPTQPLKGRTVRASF

Compound | Ki (hCA II) [nM] | Ki (hCA I) [nM]
NS(=O)(=O)c1ccc(C(=O)N2CCC(C(=O)N/N=C/c3ccccc3)CC2)cc1 [compound 5, (E)-4-(4-(2-benzylidenehydrazinecarbonyl)piperidine-1-carbonyl)benzenesulfonamide] | 4.41 | 18.5
Cc1ccc(/C=N/NC(=O)C2CCN(C(=O)c3ccc(S(N)(=O)=O)cc3)CC2)cc1 [compound 6, (E)-4-(4-(2-(4-methylbenzylidene)hydrazinecarbonyl)piperidine-1-carbonyl)benzenesulfonamide] | 5.62 | 3240
COc1ccccc1/C=N/NC(=O)C1CCN(C(=O)c2ccc(S(N)(=O)=O)cc2)CC1 [compound 7, (E)-4-(4-(2-(2-methoxybenzylidene)hydrazinecarbonyl)piperidine-1-carbonyl)benzenesulfonamide] | 2.94 | 45.5
COc1cccc(/C=N/NC(=O)C2CCN(C(=O)c3ccc(S(N)(=O)=O)cc3)CC2)c1 [compound 8, (E)-4-(4-(2-(3-methoxybenzylidene)hydrazinecarbonyl)piperidine-1-carbonyl)benzenesulfonamide] | 44.3 | 382
COc1ccc(/C=N/NC(=O)C2CCN(C(=O)c3ccc(S(N)(=O)=O)cc3)CC2)cc1 [compound 9, (E)-4-(4-(2-(4-methoxybenzylidene)hydrazinecarbonyl)piperidine-1-carbonyl)benzenesulfonamide] | 4.48 | 389
COc1ccc(/C=N/NC(=O)C2CCN(C(=O)c3ccc(S(N)(=O)=O)cc3)CC2)c(OC)c1 [compound 10, (E)-4-(4-(2-(2,4-dimethoxybenzylidene)hydrazinecarbonyl)piperidine-1-carbonyl)benzenesulfonamide] | 160 | 1890
COc1ccc(/C=N/NC(=O)C2CCN(C(=O)c3ccc(S(N)(=O)=O)cc3)CC2)cc1OC [compound 11, (E)-4-(4-(2-(3,4-dimethoxybenzylidene)hydrazinecarbonyl)piperidine-1-carbonyl)benzenesulfonamide] | 55.1 | 344
COc1ccc(OC)c(/C=N/NC(=O)C2CCN(C(=O)c3ccc(S(N)(=O)=O)cc3)CC2)c1 [compound 12, (E)-4-(4-(2-(2,5-dimethoxybenzylidene)hydrazinecarbonyl)piperidine-1-carbonyl)benzenesulfonamide] | 1.75 | 24.3
COc1cc(OC)c(OC)cc1/C=N/NC(=O)C1CCN(C(=O)c2ccc(S(N)(=O)=O)cc2)CC1 [compound 13, (E)-4-(4-(2-(2,4,5-trimethoxybenzylidene)hydrazinecarbonyl)piperidine-1-carbonyl)benzenesulfonamide] | 3.78 | –
COc1cc(/C=N/NC(=O)C2CCN(C(=O)c3ccc(S(N)(=O)=O)cc3)CC2)cc(OC)c1OC [compound 14, (E)-4-(4-(2-(3,4,5-trimethoxybenzylidene)hydrazinecarbonyl)piperidine-1-carbonyl)benzenesulfonamide] | 67.6 | 384
COc1ccc(/C=N/NC(=O)C2CCN(C(=O)c3ccc(S(N)(=O)=O)cc3)CC2)c(Br)c1OC [compound 15, (E)-4-(4-(2-(2-bromo-3,4-dimethoxybenzylidene)hydrazinecarbonyl)piperidine-1-carbonyl)benzenesulfonamide] | 65.5 | 1540
NS(=O)(=O)c1ccc(C(=O)N2CCC(C(=O)N/N=C/c3ccc4ccccc4c3)CC2)cc1 [compound 16, (E)-4-(4-(2-((naphthalen-2-yl)methylene)hydrazinecarbonyl)piperidine-1-carbonyl)benzenesulfonamide] | 209 | 4000
COc1c(/C=N/NC(=O)C2CCN(C(=O)c3ccc(S(N)(=O)=O)cc3)CC2)ccc2ccccc12 [compound 17, (E)-4-(4-(2-((1-methoxynaphthalen-2-yl)methylene)hydrazinecarbonyl)piperidine-1-carbonyl)benzenesulfonamide] | 25.2 | 334
NS(=O)(=O)c1ccc(C(=O)N2CCC(C(=O)N/N=C/c3ccc(C(F)(F)F)cc3)CC2)cc1 [compound 18, (E)-4-(4-(2-(4-(trifluoromethyl)benzylidene)hydrazinecarbonyl)piperidine-1-carbonyl)benzenesulfonamide] | 37.4 | 1750
NS(=O)(=O)c1ccc(C(=O)N2CCC(C(=O)N/N=C/c3cccc(F)c3)CC2)cc1 [compound 19, (E)-4-(4-(2-(3-fluorobenzylidene)hydrazinecarbonyl)piperidine-1-carbonyl)benzenesulfonamide] | 92.4 | 392
NS(=O)(=O)c1ccc(C(=O)N2CCC(C(=O)N/N=C/c3ccc(F)cc3)CC2)cc1 [compound 20, (E)-4-(4-(2-(4-fluorobenzylidene)hydrazinecarbonyl)piperidine-1-carbonyl)benzenesulfonamide] | 17.1 | 340
NS(=O)(=O)c1ccc(C(=O)N2CCC(C(=O)N/N=C/c3cccc([N+](=O)[O-])c3)CC2)cc1 [compound 21, (E)-4-(4-(2-(3-nitrobenzylidene)hydrazinecarbonyl)piperidine-1-carbonyl)benzenesulfonamide] | 46.2 | 1820
NS(=O)(=O)c1ccc(C(=O)N2CCC(C(=O)N/N=C/c3ccc([N+](=O)[O-])cc3)CC2)cc1 [compound 22, (E)-4-(4-(2-(4-nitrobenzylidene)hydrazinecarbonyl)piperidine-1-carbonyl)benzenesulfonamide] | 4.92 | 384
NS(=O)(=O)c1ccc(C(=O)N2CCC(C(=O)N/N=C/c3ccccc3Cl)CC2)cc1 [compound 23, (E)-4-(4-(2-(2-chlorobenzylidene)hydrazinecarbonyl)piperidine-1-carbonyl)benzenesulfonamide] | 6.51 | 482
NS(=O)(=O)c1ccc(C(=O)N2CCC(C(=O)N/N=C/c3cccc(Cl)c3)CC2)cc1 [compound 24, (E)-4-(4-(2-(3-chlorobenzylidene)hydrazinecarbonyl)piperidine-1-carbonyl)benzenesulfonamide] | 55.4 | 398
NS(=O)(=O)c1ccc(C(=O)N2CCC(C(=O)N/N=C/c3ccc(Cl)cc3Cl)CC2)cc1 [compound 25, (E)-4-(4-(2-(2,4-dichlorobenzylidene)hydrazinecarbonyl)piperidine-1-carbonyl)benzenesulfonamide] | 6.65 | 336
NS(=O)(=O)c1ccc(C(=O)N2CCC(C(=O)N/N=C/c3cc(Cl)ccc3Cl)CC2)cc1 [compound 26, (E)-4-(4-(2-(2,5-dichlorobenzylidene)hydrazinecarbonyl)piperidine-1-carbonyl)benzenesulfonamide] | 3.64 | 800
NS(=O)(=O)c1ccc(C(=O)N2CCC(C(=O)N/N=C/c3c(Cl)cccc3Cl)CC2)cc1 [compound 27, (E)-4-(4-(2-(2,6-dichlorobenzylidene)hydrazinecarbonyl)piperidine-1-carbonyl)benzenesulfonamide] | 3.57 | 24.6
